Measured values from patent US20170121344A1 (Siga Technologies, Inc., priority 2009, published 2017).
Read-outs that look alike come from different tables or passages of the source.

Tested on: Dengue-2 (Strain New Guinea C)
Assay: Viral yield assay against Dengue-2 in Vero cells
Type: cell-based, Dengue virus
Settings: Dengue virus
Procedure, shortened: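 Progeny virus from compound-treated Vero monolayers infected at an MOI of 0.1 is collected after 48 h at 37° C and titered on Vero cells. DMSO serves as control.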

[1] = Vero cells, MOI 0.1, harvested 48 hours post infection, read-out: Activity (EC50 class) against Dengue-2 Virus in Vero cells
[2] = DENV2, viral yield assay, Vero cells, MOI 0.1, 48 hours post infection, read-out: Activity (EC50 in μM) DENV-2
[3] = Vero, 48 h, read-out: Activity (EC50 class) against Dengue-2 Virus in Vero cells

Structure (SMILES) | EC50 [1] | EC50 [2] | also measured
Cc1c(C(=O)Nc2nccs2)sc2nc(-c3cccs3)cc(C(F)(F)F)c12 [Compound 386, 3-methyl-N-thiazol-2-yl-6-(2-thienyl)-4-(trifluoromethyl)thieno[2,3-b]pyridine-2-carboxamide] |  |  | EC50 (DENV2, Vero, 48 h, read-out: Activity (EC50 in μM) DENV-2): < 5 µM
CCc1nnc(NC(=O)c2sc3nc(-c4ccccc4)cc(C(F)(F)F)c3c2N)s1 [Compound 194, 3-Amino-6-phenyl-4-trifluoromethyl-thieno[2,3-b]pyridine-2-carboxylic acid (5-ethyl-[1,3,4]thiadiazol-2-yl)-amide] | > 25 µM |  | 
COc1ccc(NC(=O)c2sc3nc4c(cc3c2N)CN(C(C)C)CC4)cc1 [Compound 23, 3-Amino-6-isopropyl-5,6,7,8-tetrahydro-thieno[2,3-b][1,6]naphthyridine-2-carboxylic acid (4-methoxy-phenyl)-amide] | < 5 µM |  | 
CCN(C(=O)c1sc2nc(C)cc(C(F)(F)F)c2c1C)c1ccccc1 [Compound 406] |  | < 5 µM | 
Nc1c(C(=O)Nc2cccc(Br)c2)sc2ncccc12 [Compound 421, 3-amino-N-(3-bromophenyl)thieno[2,3-b] pyridine-2-carboxamide] |  | 5 to 25 µM | 
Cc1csc(NC(=O)c2sc3nc(-c4cccs4)ccc3c2N)n1 [Compound 55, 3-Amino-6-thiophen-2-yl-thieno[2,3-b]pyridine-2-carboxylic acid (4-methyl-thiazol-2-yl)amide] |  |  | EC50 [3]: < 5 µM
Cc1csc(NC(=O)c2sc3nc4c(cc3c2N)CN(C)CC4)n1 [Compound 39, 3-Amino-6-methyl-5,6,7,8-tetrahydro-thieno[2,3-b][1,6]naphthyridine-2-carboxylic acid (4-methyl-thiazol-2-yl)-amide] | < 5 µM |  | 
Cc1ccc(-c2ccc3c(N)c(C(=O)Nc4ccccc4F)sc3n2)cc1 [Compound 649, 3-amino-N-(2-fluorophenyl)-6-(p-tolyl) thieno[2,3-b]pyridine-2-carboxamide] |  | < 5 µM | 
Nc1c(C(=O)Nc2cc(Cl)cc(Cl)c2)sc2nc(-c3ccc(F)cc3)ccc12 [Compound 622, 3-amino-N-(3,5-dichlorophenyl)-6-(4-fluorophenyl)thieno[2,3-b]pyridine-2-carboxamide] |  | < 5 µM | 
CC(C)N1CCc2nc3sc(C(=O)Nc4ccc(C(F)(F)F)cc4)c(N)c3cc2C1 [Compound 60, 3-Amino-6-isopropyl-5,6,7,8-tetrahydro-thieno[2,3-b][1,6]naphthyridine-2-carboxylic acid (4-trifluoromethyl-phenyl)-amide] | < 5 µM |  | 
Nc1c(C(=O)Nc2ccccc2C(F)(F)F)sc2nc3c(cc12)CCCC3 [Compound 254, 3-Amino-5,6,7,8-tetrahydro-thieno[2,3-b]quinoline-2-carboxylic acid (2-trifluoromethyl-phenyl)-amide] | > 25 µM |  | 
Cn1cnc2c(sc3nc4c(cc32)COC(C)(C)C4)c1=O [Compound 201, 2,8,8-Trimethyl-8,9-dihydro-2H,6H-7-oxa-11-thia-2,4,10-triaza-benzo[b]fluoren-1-one] |  |  | EC50 [3]: > 25 µM
COc1cccc(-c2ccc3c(N)c(C(=O)Nc4ccc(Cl)cc4Cl)sc3n2)c1 [Compound 545, 3-amino-N-(2,4-dichlorophenyl)-6-(3-methoxyphenyl)thieno[2,3-b]pyridine-2-carboxamide] |  | < 5 µM | 
COc1ccc(C)cc1NC(=O)c1sc2nc(C)cc(C)c2c1N [Compound 259, 3-Amino-4,6-dimethyl-thieno[2,3-b]pyridine-2-carboxylic acid (2-methoxy-5-methyl-phenyl)-amide] | > 25 µM |  | 
COc1ccc(Cl)c(NC(=O)c2sc3nc(-c4ccc5c(c4)OCO5)ccc3c2N)c1 [Compound 589, 3-amino-6-(1,3-benzodioxol-5-yl)-N-(2-chloro-5-methoxy-phenyl)thieno[2,3-b] pyridine-2-carboxamide] |  | < 5 µM | 
NC(=O)c1sc2nc3c(c(-c4cccs4)c2c1N)CCCC3 [Compound 195, 3-Amino-4-thiophen-2-yl-5,6,7,8-tetrahydro-thieno[2,3-b]quinoline-2-carboxylic acid amide] | > 25 µM |  | 
Cc1ccccc1NC(=O)c1sc2nc3c(c(-c4cccs4)c2c1N)CN(C)CC3 [Compound 27, 3-Amino-6-methyl-4-thiophen-2-yl-5,6,7,8-tetrahydro-thieno[2,3-b][1,6]naphthyridine-2-carboxylic acid o-tolylamide] | < 5 µM |  | 
Cc1cc(C)c2c(n1)sc1c(=O)[nH]c(C)nc12 [Compound 153, 2,7,9-Trimethyl-3H-pyrido[3′,2′:4,5]thieno[3,2-d]pyrimidin-4-one] | > 25 µM |  | 
COc1ccc(NC(=O)c2sc3nc4c(c(-c5ccccc5)c3c2N)CN(C)CC4)cc1 [Compound 50, 3-Amino-6-methyl-4-phenyl-5,6,7,8-tetrahydro-thieno[2,3-b][1,6]naphthyridine-2-carboxylic acid (4-methoxy-phenyl)-amide] | < 5 µM |  | 

Structure (SMILES) | EC50 [1] | EC50 [2] | also measured
COc1cccc(-c2ccc3c(N)c(C(=O)Nc4ccc(F)cc4F)sc3n2)c1 [Compound 502, 3-amino-N-(2,4-difluorophenyl)-6-(3-methoxyphenyl)thieno[2,3-b]pyridine-2-carboxamide] |  | < 5 µM | 
N#Cc1c(N)nc2sc(C(=O)Nc3nc(-c4ccccc4)cs3)c(N)c2c1-c1ccco1 [Compound 383, 3,6-diamino-5-cyano-4-(2-furyl)-N-(4-phenylthiazol-2-yl)thieno[2,3-b]pyridine-2-carboxamide] |  | < 5 µM | 
Cc1cccc(NC(=O)c2sc3nc4c(cc3c2N)CCCCC4)c1 [Compound 117, 3-Amino-6,7,8,9-tetrahydro-5H-1-thia-10-aza-cyclohepta[f]indene-2-carboxylic acid m-tolylamide] | > 25 µM |  | 
CCN(CC)C(=O)c1sc2nc(-c3cccs3)cc(C(F)(F)F)c2c1N [Compound 85, 3-Amino-6-thiophen-2-yl-4-trifluoromethyl-thieno[2,3-b]pyridine-2-carboxylic acid diethylamide] | 5 to 25 µM |  | 
Nc1c(C(=O)Nc2nccs2)sc2nc3c(cc12)CCCCC3 [Compound 366, 3-amino-N-(thiazol-2-yl)-6,7,8,9-tetrahydro-5H-cyclohepta [b]thieno[3,2-e]pyridine-2-carboxamide] |  | < 5 µM | 
COCc1cc(C)nc2sc(C(=O)Nc3ccc(C(C)=O)cc3)c(N)c12 [Compound 141, 3-Amino-4-methoxymethyl-6-methyl-thieno[2,3-b]pyridine-2-carboxylic acid (4-acetyl-phenyl)-amide] | > 25 µM |  | 
COc1cccc(-c2ccc3c(N)c(C(=O)Nc4ccc5c(c4)OCCO5)sc3n2)c1 [Compound 499, 3-amino-N-(2,3-dihydor-1,4-benzodioxin-6-yl)-6-(3-methoxyphenyl)thieno[2,3-b] pyridine-2-carboxamide] |  | < 5 µM | 
Nc1c(C(=O)N2CCOCC2)sc2nc3c(cc12)CCCC3 [Compound 187, (3-Amino-5,6,7,8-tetrahydro-thieno[2,3-b]quinolin-2-yl)-morpholin-4-yl-methanone] |  |  | EC50 [3]: > 25 µM
CCN1CCc2nc3sc(C(=O)Nc4cccnc4Cl)c(N)c3cc2C1 [Compound 41, 3-Amino-6-ethyl-5,6,7,8-tetrahydro-thieno[2,3-b][1,6]naphthyridine-2-carboxylic acid (2-chloro-pyridin-3-yl)-amide] |  |  | EC50 [3]: < 5 µM
Cc1nc2c(sc3nc4c(cc32)COC(C)(C)C4)c(=O)n1CCc1ccccc1 [Compound 230, 3,8,8-Trimethyl-2-phenethyl-8,9-dihydro-2H,6H-7-oxa-11-thia-2,4,10-triaza-benzo[b]fluoren-1-one] |  |  | EC50 [3]: > 25 µM
CN1CCc2nc3sc(C(=O)Nc4cccc(C(F)(F)F)c4)c(N)c3cc2C1 [Compound 280, 3-Amino-6-methyl-5,6,7,8-tetrahydro-thieno[2,3-b][1,6]naphthyridine-2-carboxylic acid (3-trifluoromethyl-phenyl)-amide] | > 25 µM |  | 
COc1ccc(-c2ccc3c(N)c(C(=O)Nc4ccc(Cl)c(C(F)(F)F)c4)sc3n2)cc1OC [Compound 585, 3-amino-N-[4-chloro-3-(trifluoromethyl)phenyl]-6-(3,4-dimethoxyphenyl)thieno [2,3-b]pyridine-2-carboxamide] |  | < 5 µM | 
COc1ccc(Cl)cc1NC(=O)c1sc2nc(-c3ccc(C)cc3)ccc2c1N [Compound 641, 3-amino-N-(5-chloro-2-methoxy-phenyl)-6-(p-tolyl)thieno[2,3-b]pyridine-2-carboxamide] |  | < 5 µM | 
Cc1ccc(NC(=O)c2sc3nc4c(cc3c2N)CN(C)CC4)c(C)c1 [Compound 17, 3-Amino-6-methyl-5,6,7,8-tetrahydro-thieno[2,3-b][1,6]naphthyridine-2-carboxylic acid (2,4-dimethyl-phenyl)-amide] | < 5 µM |  | 
Nc1c(C(=O)Nc2ccccc2F)sc2nc3c(cc12)CCCCC3 [Compound 79, 3-Amino-6,7,8,9-tetrahydro-5H-1-thia-10-aza-cyclohepta[f]indene-2-carboxylic acid (2-fluoro-phenyl)-amide] |  |  | EC50 [3]: 5 to 25 µM
N#Cc1cc2c(N)c(C(=O)Nc3ccccc3F)sc2nc1N [Compound 135, 3,6-Diamino-5-cyano-thieno[2,3-b]pyridine-2-carboxylic acid (2-fluoro-phenyl)-amide] | > 25 µM |  | 
O=c1[nH]cnc2c1sc1nc(-c3cccs3)ccc12 [Compound 412, 7-(thiophen-2-yl)pyrido[3′,2′:4,5]thieno [3,2-d]pyrimidin-4(3H)-one] |  | 5 to 25 µM | 
CCOc1ccccc1NC(=O)c1sc2nc(-c3ccc(OC)c(OC)c3)ccc2c1N [Compound 509, 3-amino-6-(3,4-dimethoxyphenyl)-N-(2-ethoxyphenyl)thieno[2,3-b]pyridine-2-carboxamide] |  | < 5 µM | 
CC(=O)c1cc2c(N)c(C(=O)NC34CC5CC(CC(C5)C3)C4)sc2nc1C [Compound 142, 5-Acetyl-3-amino-6-methyl-thieno[2,3-b]pyridine-2-carboxylic acid adamantan-1-ylamide] | > 25 µM |  | 
